Where “and” joins values, the source holds several entries; their conditions need not be identical. Equal entries are not always repeated. Toxic doses and inconclusive results are not listed.
System: P388 leukemia ip, CD2F1 mice, survival T/C
Experiment: NCI In Vivo Anticancer Drug Screen. Data for tumor model P388 Leukemia (intraperitoneal) in CD2F1 (CDF1) mice
Conditions: endpoint: median survival time, higher = longer survival
In short: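 Mice carrying the transplanted tumor received test compound or vehicle. Survival was recorded in each group, and the value is the treated-group measurement divided by that of the vehicle-treated control group.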

[1] = dose: 1.87 mg/kg/injection, schedule: Q01DX005 (ip), vehicle: Klucel (hydroxypropylcellulose) (HPC)
[2] = dose: 3.75 mg/kg/injection, schedule: Q01DX005 (ip), vehicle: Klucel (hydroxypropylcellulose) (HPC)
[3] = dose: 60.0 mg/kg/injection, schedule: Q01DX005 (ip), vehicle: saline with Tween-80
[4] = dose: 120.0 mg/kg/injection, schedule: Q01DX005 (ip), vehicle: saline with Tween-80
[5] = dose: 240.0 mg/kg/injection, schedule: Q01DX005 (ip), vehicle: saline with Tween-80
[6] = dose: 25.0 mg/kg/injection, schedule: Q01DX009 (ip), vehicle: saline
[7] = dose: 25.0 mg/kg/injection, schedule: Q01DX009 (ip), vehicle: Klucel (hydroxypropylcellulose) (HPC)
[8] = dose: 50.0 mg/kg/injection, schedule: Q01DX009 (ip), vehicle: Klucel (hydroxypropylcellulose) (HPC)
[9] = dose: 100.0 mg/kg/injection, schedule: Q01DX009 (ip), vehicle: Klucel (hydroxypropylcellulose) (HPC)
[10] = dose: 200.0 mg/kg/injection, schedule: Q01DX009 (ip), vehicle: Klucel (hydroxypropylcellulose) (HPC)

## O=S(=O)(O)CC[S][Sn]([S]CCS(=O)(=O)O)([c]1ccccc1)[c]1ccccc1 (tested in a mixture with another compound)
[1]
  T/C: 121 % of control
[2]
  T/C: 152 % of control

## O=C(Nc1ccc(F)cc1)ON=C1CCCCC1
[3]
  T/C: 92 % of control
[4]
  T/C: 97 % of control
[5]
  T/C: 90 % of control

## CN(CCC(=O)/C(=C\c1ccccc1)c1ccc(Cl)cc1)Cc1ccccc1
dose: 0.4 mg/kg/injection, schedule: Q01DX005 (ip), vehicle: saline with Tween-80
  T/C: 101 % of control
dose: 0.8 mg/kg/injection, schedule: Q01DX005 (ip), vehicle: saline with Tween-80
  T/C: 102 % of control
dose: 1.6 mg/kg/injection, schedule: Q01DX005 (ip), vehicle: saline with Tween-80
  T/C: 109 % of control
dose: 3.12 mg/kg/injection, schedule: Q01DX005 (ip), vehicle: saline with Tween-80
  T/C: 109 % of control
dose: 6.25 mg/kg/injection, schedule: Q01DX005 (ip), vehicle: saline with Tween-80
  T/C: 111 % of control

## CSc1nc(NC2OCC(OC(C)=O)C(OC(C)=O)C2OC(C)=O)c(N=C(C)C(C)=O)c(=O)[nH]1 (configuration not stated)
[3]
  T/C: 95 % of control
[4]
  T/C: 108 % of control
[5]
  T/C: 95 % of control

## CC([NH-])C[NH-].O=[N+]([O-])O.O=[N+]([O-])O.[Pt+2] (configuration not stated)
dose: 6.25 mg/kg/injection, schedule: Q04DX002 (ip), vehicle: saline
  T/C: 153 % of control
dose: 12.5 mg/kg/injection, schedule: Q04DX002 (ip), vehicle: saline
  T/C: 100 % of control and 98 % of control

## C=C(Cl)CNc1ccccc1C(=O)O
dose: 25.0 mg/kg/injection, schedule: Q04DX003 (ip), vehicle: Klucel (hydroxypropylcellulose) (HPC)
  T/C: 109 % of control and 97 % of control
dose: 50.0 mg/kg/injection, schedule: Q04DX003 (ip), vehicle: Klucel (hydroxypropylcellulose) (HPC)
  T/C: 109 % of control and 110 % of control
dose: 100.0 mg/kg/injection, schedule: Q04DX003 (ip), vehicle: Klucel (hydroxypropylcellulose) (HPC)
  T/C: 103 % of control and 95 % of control
dose: 200.0 mg/kg/injection, schedule: Q04DX003 (ip), vehicle: Klucel (hydroxypropylcellulose) (HPC)
  T/C: 94 % of control

## O=C(CC(O)(C(F)(F)Cl)C(F)(F)Cl)c1ccco1
dose: 50.0 mg/kg/injection, schedule: Q04DX003 (ip), vehicle: saline with Tween-80
  T/C: 109 % of control
dose: 100.0 mg/kg/injection, schedule: Q04DX003 (ip), vehicle: saline with Tween-80
  T/C: 118 % of control
dose: 200.0 mg/kg/injection, schedule: Q04DX003 (ip), vehicle: saline with Tween-80
  T/C: 100 % of control

## Nc1ccc(S(=O)(=O)Nc2nc(/C=C/c3ccccc3)cc(-c3cc(/C=C/c4ccccc4)nc(NS(=O)(=O)c4ccc(N)cc4)n3)n2)cc1
[3]
  T/C: 94 % of control
[4]
  T/C: 95 % of control
[5]
  T/C: 94 % of control

## COC(=O)c1nnn(-c2ccc(C)c(C)c2)c1N
[3]
  T/C: 90 % of control
[4]
  T/C: 93 % of control
[5]
  T/C: 94 % of control

## C1CN2CCC1C1(C2)SSC2(CN3CCC2CC3)S1 (configuration not stated)
dose: 6.25 mg/kg/injection, schedule: Q01DX009 (ip), vehicle: saline
  T/C: 100 % of control
dose: 12.5 mg/kg/injection, schedule: Q01DX009 (ip), vehicle: saline
  T/C: 95 % of control
[6]
  T/C: 95 % of control

## C#CCN(C)/N=N/c1nc[nH]c1C(N)=O
dose: 12.5 mg/kg/injection, schedule: Q01DX009 (ip), vehicle: Klucel (hydroxypropylcellulose) (HPC)
  T/C: 115 % of control
[7]
  T/C: 122 % of control
[8]
  T/C: 120 % of control
[9]
  T/C: 112 % of control

## C=C1C(=O)OC2C1C(OC(=O)/C(=C/CO)CO)CC1(CO1)C1CC=C(C)C21 (configuration not stated)
dose: 0.94 mg/kg/injection, schedule: Q01DX005 (ip), vehicle: Klucel (hydroxypropylcellulose) (HPC)
  T/C: 111 % of control
[1]
  T/C: 107 % of control
[2]
  T/C: 108 % of control

## CNC(=O)OCc1c(COC(=O)NC)c(-c2ccccc2)n2c1CCC2
[8]
  T/C: 124 % of control
[9]
  T/C: 124 % of control

## CC(C)c1nc(C=O)c(C=O)n1Cc1ccccc1
[3]
  T/C: 97 % of control
[4]
  T/C: 92 % of control
[5]
  T/C: 97 % of control

## CCC(=O)OCc1c(-c2ccccc2)nc2sccn12
dose: 200.0 mg/kg/injection, schedule: Q01DX001 (ip), vehicle: Klucel (hydroxypropylcellulose) (HPC)
  T/C: 103 % of control

## [Br][Ga]([Br])[Br]
[6]
  T/C: 115 % of control
dose: 50.0 mg/kg/injection, schedule: Q01DX009 (ip), vehicle: saline
  T/C: 100 % of control
dose: 100.0 mg/kg/injection, schedule: Q04DX003 (ip), vehicle: saline sonified
  T/C: 100 % of control

## CC(C)C1(c2ccsc2)NC(=O)NC1=O (configuration not stated)
[8]
  T/C: 107 % of control
[9]
  T/C: 99 % of control
[10]
  T/C: 96 % of control

## COc1ccc2c(c1)[C@@H](NC(C)=O)CCc1cc(OC)c(OC)c(OC)c1-2
dose: 0.25 mg/kg/injection, schedule: Q01DX005 (ip), vehicle: saline
  T/C: 100 % of control and 108 % of control
dose: 0.5 mg/kg/injection, schedule: Q01DX005 (ip), vehicle: saline
  T/C: 102 % of control and 105 % of control
dose: 1.0 mg/kg/injection, schedule: Q01DX005 (ip), vehicle: saline
  T/C: 104 % of control and 108 % of control
dose: 2.0 mg/kg/injection, schedule: Q01DX005 (ip), vehicle: saline
  T/C: 110 % of control and 96 % of control
dose: 4.0 mg/kg/injection, schedule: Q01DX005 (ip), vehicle: saline
  T/C: 98 % of control and 108 % of control

## CCC(C)C(N)C(=O)NC(CC(N)=O)C(=O)NC(CC(C)C)C(=O)NC(CCCCN)C(=O)NC(C)C(=O)NC(CC(C)C)C(=O)NC(C)C(=O)NC(C)C(=O)NC(CC(C)C)C(=O)NC(C)C(=O)NC(CCCCN)C(=O)NC(CCCCN)C(=O)NC(C(=O)NC(CC(C)C)C(N)=O)C(C)CC (configuration not stated)
dose: 1.56 mg/kg/injection, schedule: Q01DX005 (ip), vehicle: Klucel (hydroxypropylcellulose) (HPC)
  T/C: 102 % of control
dose: 3.12 mg/kg/injection, schedule: Q01DX005 (ip), vehicle: Klucel (hydroxypropylcellulose) (HPC)
  T/C: 100 % of control
dose: 6.25 mg/kg/injection, schedule: Q01DX005 (ip), vehicle: Klucel (hydroxypropylcellulose) (HPC)
  T/C: 95 % of control
dose: 12.5 mg/kg/injection, schedule: Q01DX005 (ip), vehicle: Klucel (hydroxypropylcellulose) (HPC)
  T/C: 94 % of control and 96 % of control

## CCOC(=O)C(c1ccccc1)(S(C)(=O)=O)S(C)(=O)=O
dose: 12.5 mg/kg/injection, schedule: Q01DX009 (ip), vehicle: saline with Tween-80
  T/C: 108 % of control
dose: 25.0 mg/kg/injection, schedule: Q01DX009 (ip), vehicle: saline with Tween-80
  T/C: 112 % of control
dose: 50.0 mg/kg/injection, schedule: Q01DX009 (ip), vehicle: saline with Tween-80
  T/C: 104 % of control

## COc1cccc2c1C(=O)c1c(cc3c(c1O)[C@@H](OC1CC(NC(=O)c4ccc(N=[N+]=[N-])cc4)C(O)C(C)O1)C[C@](O)(C(C)=O)C3)C2=O (some centres not stated)
dose: 6.25 mg/kg/injection, schedule: Q04DX003 (ip), vehicle: olive oil, sesame oil, peanut oil
  T/C: 100 % of control
dose: 12.5 mg/kg/injection, schedule: Q04DX003 (ip), vehicle: olive oil, sesame oil, peanut oil
  T/C: 97 % of control
dose: 25.0 mg/kg/injection, schedule: Q04DX003 (ip), vehicle: olive oil, sesame oil, peanut oil
  T/C: 100 % of control
dose: 50.0 mg/kg/injection, schedule: Q04DX003 (ip), vehicle: olive oil, sesame oil, peanut oil
  T/C: 112 % of control

## C[C@@H]1CCC2=C(CO)C(=O)O[C@@]23CC(C)(C)[C@H]2O[C@]123
dose: 2.25 mg/kg/injection, schedule: Q01DX005 (ip), vehicle: Klucel (hydroxypropylcellulose) (HPC)
  T/C: 98 % of control
dose: 4.5 mg/kg/injection, schedule: Q01DX005 (ip), vehicle: Klucel (hydroxypropylcellulose) (HPC)
  T/C: 97 % of control
dose: 9.0 mg/kg/injection, schedule: Q01DX005 (ip), vehicle: Klucel (hydroxypropylcellulose) (HPC)
  T/C: 98 % of control
dose: 18.0 mg/kg/injection, schedule: Q01DX005 (ip), vehicle: Klucel (hydroxypropylcellulose) (HPC)
  T/C: 100 % of control
dose: 36.0 mg/kg/injection, schedule: Q01DX005 (ip), vehicle: Klucel (hydroxypropylcellulose) (HPC)
  T/C: 103 % of control

## CCCCOC(=O)C1=NNC(=O)C1
[7]
  T/C: 115 % of control
[8]
  T/C: 108 % of control
[9]
  T/C: 112 % of control
[10]
  T/C: 108 % of control

## Cc1nnc2sc(-c3cccc(Cl)c3)nn2c1=O
dose: 50.0 mg/kg/injection, schedule: Q04DX002 (ip), vehicle: Klucel (hydroxypropylcellulose) (HPC)
  T/C: 102 % of control
dose: 100.0 mg/kg/injection, schedule: Q04DX002 (ip), vehicle: Klucel (hydroxypropylcellulose) (HPC)
  T/C: 100 % of control
dose: 200.0 mg/kg/injection, schedule: Q04DX002 (ip), vehicle: Klucel (hydroxypropylcellulose) (HPC)
  T/C: 100 % of control

## CN(C)c1ccc(/C=C\c2cccc[n+]2C)cc1
dose: 0.39 mg/kg/injection, schedule: Q01DX009 (ip), vehicle: saline
  T/C: 99 % of control and 100 % of control
dose: 0.78 mg/kg/injection, schedule: Q01DX009 (ip), vehicle: saline
  T/C: 100 % of control and 106 % of control
dose: 1.56 mg/kg/injection, schedule: Q01DX009 (ip), vehicle: saline
  T/C: 100 % of control and 105 % of control
dose: 3.12 mg/kg/injection, schedule: Q01DX009 (ip), vehicle: saline
  T/C: 109 % of control and 114 % of control
